Reference: ChEMBL document CHEMBL3860109, “Benzenesulfonamides Incorporating Flexible Triazole Moieties Are Highly Effective Carbonic Anhydrase Inhibitors: Synthesis and Kinetic, Crystallographic, Computational, and Intraocular Pressure Lowering Investigations” (J Med Chem, 2016)
pKi: −log10 of the molar value. Active and inactive are the calls of the source. The calls are words filed in the database; no cut-off is given here.

Columns and labels:
Carbonic anhydrase 1 = Carbonic anhydrase 1 (Homo sapiens, UniProt P00915); assay: Inhibition of human carbonic anhydrase 1 pre-incubated for 15 mins by stopped flow carbon dioxide hydrase assay
Carbonic anhydrase 9 = Carbonic anhydrase 9 (Homo sapiens, UniProt Q16790)
Description: Inhibition of human carbonic anhydrase 9 pre-incubated for 15 mins by stopped flow carbon dioxide hydrase assay

Oryctolagus cuniculus [1] = species on record: Oryctolagus cuniculus; assay: Reduction in intraocular pressure in New Zealand albino rabbit model of hypertonic saline-induced ocular hypertension at 1 to 2% instilled immediately after hypertonic saline injection measured after 4 hrs post dose; assay type: functional; settings: Eye
Oryctolagus cuniculus [2] = species on record: Oryctolagus cuniculus; assay: Reduction in intraocular pressure in New Zealand albino rabbit model of hypertonic saline-induced ocular hypertension at 1 to 2% instilled immediately after hypertonic saline injection measured after 2 hrs post dose; assay type: functional, Eye
Carbonic anhydrase 2 = Carbonic anhydrase 2 (Homo sapiens, UniProt P00918); assay: Inhibition of human carbonic anhydrase 2 pre-incubated for 15 mins by stopped flow carbon dioxide hydrase assay

Chain of Carbonic anhydrase 1 (P00915 whole entry): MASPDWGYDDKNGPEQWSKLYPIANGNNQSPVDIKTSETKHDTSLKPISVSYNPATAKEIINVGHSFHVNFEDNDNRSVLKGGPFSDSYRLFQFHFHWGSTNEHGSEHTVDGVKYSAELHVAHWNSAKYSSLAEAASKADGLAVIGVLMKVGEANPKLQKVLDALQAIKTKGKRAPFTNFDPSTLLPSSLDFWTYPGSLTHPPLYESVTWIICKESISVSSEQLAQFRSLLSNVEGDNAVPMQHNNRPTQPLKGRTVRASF

Structure (SMILES) | pKi (Carbonic anhydrase 9) | further results
NS(=O)(=O)c1ccc(-n2cc(-c3ccccc3)nn2)cc1 |  | pKi (Carbonic anhydrase 1): 6.47
NS(=O)(=O)c1ccc(OCc2cn(-c3ccc(F)cc3)nn2)cc1 | 7.79 | 
NS(=O)(=O)c1ccc(OCc2cn(-c3ccc(C(F)(F)F)cc3)nn2)cc1 | 7.63 | pKi (Carbonic anhydrase 1): < 5.00
COc1cccc(-n2cc(COc3ccc(S(N)(=O)=O)cc3)nn2)c1 | 7.69 | 
NS(=O)(=O)c1ccc(OCc2cn(-c3ccc(O)cc3)nn2)cc1 | 7.73 | 
NS(=O)(=O)c1ccc(-n2cc(COc3cccnc3)nn2)cc1 | 7.76 | 

Now from value to compound, other results behind:

pKi (Carbonic anhydrase 9) | Structure (SMILES) | further results
8.68 | NS(=O)(=O)c1ccc(-n2cc(COc3ccccc3)nn2)cc1 | Activity (Oryctolagus cuniculus [1]): Active; Activity (Oryctolagus cuniculus [2]): 3 mmHg
8.59 | NS(=O)(=O)c1ccc(OCc2cn(-c3ccccc3)nn2)cc1 | 
7.92 | NS(=O)(=O)c1ccc(-n2cc(CN(Cc3cn(-c4ccc(S(N)(=O)=O)cc4)nn3)c3ccccc3)nn2)cc1 | pKi (Carbonic anhydrase 2): < 5.00; pKi (Carbonic anhydrase 1): < 5.00
7.84 | COc1ccc(OCc2cn(-c3ccc(S(N)(=O)=O)cc3)nn2)cc1 | 
8.03 | COc1cccc(OCc2cn(-c3ccc(S(N)(=O)=O)cc3)nn2)c1 | 
8.62 | NS(=O)(=O)c1ccc(-n2cc(CSc3ccccc3)nn2)cc1 | 
8.64 | Cc1cccc(OCc2cn(-c3ccc(S(N)(=O)=O)cc3)nn2)c1 | 
8.66 | NS(=O)(=O)c1ccc(-n2cc(CNc3ccccc3)nn2)cc1 | Activity (Oryctolagus cuniculus [2]): 2 mmHg
